# Assay results published in ChEMBL document CHEMBL1201862, “PubChem BioAssay data set” (2004).
#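 Exposure lasted 48 hours, with cells grown in 96-well plates and compounds tested at five concentrations. GI50 is the concentration that inhibits growth by half.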 The source made the active and inactive calls. Rule as the data show it: active = GI50 up to about 1.1 µM and inactive = higher.
# Tests used:
# Test in all cases: inhibition of tumour cell growth, NCI panel, 48 h
# SK-MEL-2 = test system: SK-MEL-2
# SW-620 = test system: SW-620
# RXF 393 = test system: RXF 393
# OVCAR-5 = test system: OVCAR-5
# HOP-92 = test system: HOP-92
# SF-539 = test system: SF-539
# SK-OV-3 = test system: SK-OV-3
# 786-0 = test system: 786-0
# SNB-19 = test system: SNB-19
# SF-268 = test system: SF-268
# SK-MEL-5 = test system: SK-MEL-5
# UO-31 = test system: UO-31
# HL-60 = test system: HL-60
# PC-3 = test system: PC-3
# TK-10 = test system: TK-10
# M14 = test system: M14
# HCT-15 = test system: HCT-15
# NCI-H226 = test system: NCI-H226
# A498 = test system: A498
# SR = test system: SR
SMILES,GI50 (SK-MEL-2),GI50 (SW-620),GI50 (RXF 393),GI50 (OVCAR-5),GI50 (HOP-92),GI50 (SF-539),GI50 (SK-OV-3),GI50 (786-0),GI50 (SNB-19),GI50 (SF-268),GI50 (SK-MEL-5),GI50 (UO-31),GI50 (HL-60),GI50 (PC-3),GI50 (TK-10),GI50 (M14),GI50 (HCT-15) [µM],GI50 (NCI-H226),GI50 (A498),GI50 (SR)
CC1(C)C2CC(=O)C1(C)C(O)C2Br (configuration not stated),> 100 µM (inactive),> 100 µM (inactive),> 100 µM (inactive),> 100 µM (inactive),> 100 µM (inactive),> 100 µM (inactive),> 100 µM (inactive),> 100 µM (inactive),> 100 µM (inactive),> 100 µM (inactive),> 100 µM (inactive),> 100 µM (inactive),> 100 µM (inactive),> 100 µM (inactive),> 100 µM (inactive),> 100 µM (inactive),> 100,> 100 µM (inactive),> 100 µM (inactive),
CC(C)(C)c1ccc2c(c1)C#Cc1cc(C(C)(C)C)ccc1OCCCO2,> 100 µM (inactive),> 100 µM (inactive),> 100 µM (inactive),> 100 µM (inactive),,,,> 100 µM (inactive),> 100 µM (inactive),> 100 µM (inactive),> 100 µM (inactive),> 100 µM (inactive),> 100 µM (inactive),> 100 µM (inactive),> 100 µM (inactive),> 100 µM (inactive),> 100,> 100 µM (inactive),> 100 µM (inactive),
C#Cc1cc(Br)c(OC(=O)C(C)(C)C)c(-c2cc(C#C)cc(Br)c2OC(=O)C(C)(C)C)c1,49 µM (inactive),27 µM (inactive),17.4 µM (inactive),21.2 µM (inactive),36.9 µM (inactive),64.6 µM (inactive),> 100 µM (inactive),41.5 µM (inactive),43.9 µM (inactive),50 µM (inactive),37.6 µM (inactive),,6.98 µM (inactive),50.2 µM (inactive),> 100 µM (inactive),43.7 µM (inactive),32.6,,57.7 µM (inactive),
NNC(=O)CCC(=O)Nc1cc(Cl)c(Cl)cc1Cl,> 100 µM (inactive),> 100 µM (inactive),> 100 µM (inactive),> 100 µM (inactive),> 100 µM (inactive),> 100 µM (inactive),> 100 µM (inactive),> 100 µM (inactive),> 100 µM (inactive),> 100 µM (inactive),> 100 µM (inactive),> 100 µM (inactive),> 100 µM (inactive),,> 100 µM (inactive),> 100 µM (inactive),> 100,> 100 µM (inactive),38.3 µM (inactive),0.607 µM (active)
Cc1ccc(C)c(NC(=O)C(=O)C2C(=O)C3=C(CC2(C)C)Nc2ccccc2S3)c1 (configuration not stated),> 100 µM (inactive),> 100 µM (inactive),60.5 µM (inactive),> 100 µM (inactive),52.1 µM (inactive),56.9 µM (inactive),60.4 µM (inactive),61.8 µM (inactive),> 100 µM (inactive),62.7 µM (inactive),79.8 µM (inactive),53.8 µM (inactive),> 100 µM (inactive),> 100 µM (inactive),> 100 µM (inactive),> 100 µM (inactive),> 100,58.1 µM (inactive),,
C[N+](C)(C)/C=N\c1cccc2nsnc12,> 100 µM (inactive),,> 100 µM (inactive),> 100 µM (inactive),> 100 µM (inactive),> 100 µM (inactive),> 100 µM (inactive),> 100 µM (inactive),> 100 µM (inactive),> 100 µM (inactive),> 100 µM (inactive),> 100 µM (inactive),> 100 µM (inactive),> 100 µM (inactive),> 100 µM (inactive),> 100 µM (inactive),> 100,> 100 µM (inactive),> 100 µM (inactive),
